Experimental data from ChEMBL document CHEMBL4229531, “Synthesis and evaluation of 1,2,3,4-tetrahydro-1-acridone analogues as potential dual inhibitors for amyloid-beta and tau aggregation” (Bioorg Med Chem, 2018).
Activity calls are given as the source filed them. No cut-off for these calls is given here.

Tests used:
[1] = molecular target: T1, Amyloid-beta precursor protein (Homo sapiens, UniProt P05067); experiment: Inhibition of self-induced amyloid beta (1 to 42) (unknown origin) aggregation at 20 uM after 72 hrs by thioflavin T assay relative to control
T1 sequence (P05067 whole entry): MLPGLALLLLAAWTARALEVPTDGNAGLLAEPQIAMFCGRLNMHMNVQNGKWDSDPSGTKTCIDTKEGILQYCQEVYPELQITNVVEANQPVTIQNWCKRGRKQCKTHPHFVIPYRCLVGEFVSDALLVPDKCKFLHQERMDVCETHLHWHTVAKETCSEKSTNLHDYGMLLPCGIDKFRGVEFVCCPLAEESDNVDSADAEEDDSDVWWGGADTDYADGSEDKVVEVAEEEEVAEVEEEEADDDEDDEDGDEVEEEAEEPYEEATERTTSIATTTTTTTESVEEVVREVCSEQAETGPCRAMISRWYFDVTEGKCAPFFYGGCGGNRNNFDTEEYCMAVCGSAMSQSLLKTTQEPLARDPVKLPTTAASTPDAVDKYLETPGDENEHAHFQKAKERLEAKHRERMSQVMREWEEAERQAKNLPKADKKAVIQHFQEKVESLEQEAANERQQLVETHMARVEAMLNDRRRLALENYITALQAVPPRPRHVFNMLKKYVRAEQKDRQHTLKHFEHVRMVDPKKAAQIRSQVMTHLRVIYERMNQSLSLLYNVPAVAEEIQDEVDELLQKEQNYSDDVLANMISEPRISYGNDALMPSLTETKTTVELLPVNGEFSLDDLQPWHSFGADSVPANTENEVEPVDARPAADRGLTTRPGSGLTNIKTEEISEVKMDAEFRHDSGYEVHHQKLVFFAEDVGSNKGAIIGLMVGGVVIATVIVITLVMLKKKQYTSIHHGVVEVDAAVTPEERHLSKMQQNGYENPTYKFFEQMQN

Homo sapiens [2] = organism: Homo sapiens; experiment: Inhibition of recombinant full length tau 0N4R (unknown origin) aggregation expressed in Escherichia coli at 20 uM after 72 hrs by thioflavin S assay relative to control
[3] = Permeability of the compound at 100 ug/ml after 10 hrs by artificial membrane permeability assay; type: ADME; settings: PAMPA; read-out: permeability
[4] = molecular target: T1, Amyloid-beta precursor protein; experiment: Inhibition of self-induced amyloid beta (1 to 42) (unknown origin) fibril formation at 20 uM after 24 hrs by uranyl acetate staining-based transmission electron microscopic method
Homo sapiens [5] = organism: Homo sapiens; experiment: Inhibition of fibril formation of recombinant full length tau 0N4R (unknown origin) expressed in Escherichia coli at 20 uM after 24 hrs by uranyl acetate staining-based transmission electron microscopic method
[6] = molecular target: T1, Amyloid-beta precursor protein; experiment: Inhibition of amyloid beta (1 to 42) (unknown origin) beta-sheet formation at 20 uM after 24 hrs by CD spectroscopic method
[7] = molecular target: T1, Amyloid-beta precursor protein; experiment: Binding affinity to amyloid beta (1 to 42) (unknown origin) by surface plasmon resonance assay
[8] = Binding affinity to recombinant full length tau 0N4R (unknown origin) expressed in Escherichia coli by surface plasmon resonance assay; design: species or system Homo sapiens
[9] = tested on: Microtubule-associated protein tau (Mus musculus), P10637 [P243L]; experiment: Inhibition of congo red-induced EGFP-tagged Tau P301L mutant (unknown origin) aggregation expressed in HEK293T cells at 1 uM pretreated for 30 mins followed by congo red addition and measured after 24 hrs by DAPI staining-based fluorescence assay; type: cell-based; settings: Homo sapiens
Chain of Microtubule-associated protein tau (Mus musculus), P10637 [P243L] (P10637 whole entry P243L): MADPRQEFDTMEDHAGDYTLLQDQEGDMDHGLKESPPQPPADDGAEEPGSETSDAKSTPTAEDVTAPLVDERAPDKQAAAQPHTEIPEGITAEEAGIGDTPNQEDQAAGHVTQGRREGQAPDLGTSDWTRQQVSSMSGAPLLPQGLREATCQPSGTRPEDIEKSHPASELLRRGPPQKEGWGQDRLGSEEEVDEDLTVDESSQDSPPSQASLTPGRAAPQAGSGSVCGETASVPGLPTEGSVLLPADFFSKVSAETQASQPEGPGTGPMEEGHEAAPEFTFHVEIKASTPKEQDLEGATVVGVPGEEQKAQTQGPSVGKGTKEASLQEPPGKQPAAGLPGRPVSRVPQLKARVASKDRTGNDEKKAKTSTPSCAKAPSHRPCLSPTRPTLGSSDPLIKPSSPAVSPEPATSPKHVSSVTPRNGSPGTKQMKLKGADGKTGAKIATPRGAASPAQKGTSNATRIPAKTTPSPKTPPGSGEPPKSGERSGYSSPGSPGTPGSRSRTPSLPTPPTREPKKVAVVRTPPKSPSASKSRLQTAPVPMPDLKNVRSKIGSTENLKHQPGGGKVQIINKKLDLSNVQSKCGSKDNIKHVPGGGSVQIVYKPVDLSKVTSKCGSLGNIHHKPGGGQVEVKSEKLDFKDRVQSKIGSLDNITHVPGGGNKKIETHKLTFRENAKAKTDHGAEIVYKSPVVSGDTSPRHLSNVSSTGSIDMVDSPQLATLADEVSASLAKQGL

HEK-293T = experiment: Effect on proliferation of HEK293T cells transfected with EGFP-tagged Tau P301L mutant at 1 uM; type: cell-based; settings: human
[10] = tested on: Microtubule-associated protein tau (Mus musculus), P10637 [P243L]; experiment: Inhibition of congo red-induced EGFP-tagged Tau P301L mutant (unknown origin) aggregation expressed in HEK293T cells at 0.5 uM pretreated for 30 mins followed by congo red addition and measured after 24 hrs by DAPI staining-based fluorescence assay; type: cell-based; settings: Homo sapiens

| Compound | inhibition [1] [%] | inhibition (Homo sapiens [2]) [%] | Papp at 10 h, 100 ug/ml [3] [×10⁻⁶ cm/s] | other results |
| --- | --- | --- | --- | --- |
| COc1ccc(/C=C2\CCc3nc4ccccc4c(N)c3C2=O)cc1 | -2 | 43.4 | 10.5 | – |
| Nc1c2c(nc3ccccc13)CC/C(=C\c1ccco1)C2=O | 15.2 | 30.7 | 16.2 | – |
| C[n+]1c2c(c(N)c3ccccc31)C(=O)/C(=C/c1cccc3ccccc13)CC2.[I-] | 86.7 | 102 | 4.6 | inhibition [4]: Active; inhibition (Homo sapiens [5]): Active; inhibition [6]: Active; Kd [7]: 16 µM; Kd [8]: 33.7 µM; inhibition [9]: 62.6%; Activity (HEK-293T): Non-Toxic |
| O=C1/C(=C/c2cccc(Cl)c2)CCc2nc3ccccc3cc21 | 46.2 | 4.2 | 2 | – |
| Nc1c2c(nc3ccccc13)CC/C(=C\c1ccccc1)C2=O | 7.7 | 18.7 | 26.4 | – |
| Nc1c2c(nc3ccccc13)CC/C(=C/c1cccc(F)c1)C2=O | – | – | 20.3 | – |
| C[n+]1c2c(c(N)c3ccccc31)C(=O)/C(=C\c1cccc3ccccc13)CC2.[I-] | 91.2 | 79.2 | 3.5 | – |
| Nc1c2c(nc3ccccc13)CC/C(=C\c1ccccc1Cl)C2=O | 14.1 | -3.6 | 7.4 | – |
| C[n+]1c2c(c(N)c3ccccc31)C(=O)/C(=C/c1cccc(F)c1)CC2.[I-] | 98.7 | 86.3 | 3.6 | – |
| Oc1ccc(/C=C/c2cc(O)cc(O)c2)cc1 | – | – | – | inhibition [4]: Active |
| O=C1/C(=C/c2ccccc2)CCc2nc3ccccc3cc21 | -3.2 | 20.5 | 8.6 | – |
| C[n+]1c2c(c(N)c3ccccc31)C(=O)/C(=C\c1ccccc1)CC2.[I-] | 97.6 | 7.2 | 1.8 | – |
| Nc1c2c(nc3ccccc13)CC/C(=C\c1ccccc1F)C2=O | 37 | 25.3 | 6.9 | – |
| C[n+]1c2c(c(N)c3ccccc31)C(=O)/C(=C\c1cccs1)CC2.[I-] | 94.9 | 31.6 | 1.7 | – |
| Cc1c2c(nc3ccccc13)CC/C(=C\c1ccccc1)C2=O | 16.6 | 15.7 | 3.1 | – |
| C[n+]1c2c(c(N)c3ccccc31)C(=O)/C(=C/c1ccccc1)CC2.[I-] | 84.7 | 71.2 | 2.4 | – |
| O=C1/C(=C/c2ccccc2F)CCc2nc3ccccc3cc21 | -0.5 | 2.9 | 8.3 | – |
| CN(C)c1ccc2nc3ccc(=[N+](C)C)cc-3sc2c1 | – | 80.1 | – | – |
| C[n+]1c2c(c(N)c3ccccc31)C(=O)/C(=C\c1cccc([N+](=O)[O-])c1)CC2.[I-] | 94.4 | 32 | 1.8 | – |
| Nc1c2c(nc3ccccc13)CC/C(=C\c1cccs1)C2=O | 14.5 | 11.9 | 7.2 | – |
| CN(C)c1ccc2c(c1)Sc1cc(N(C)C)ccc1N2 | – | – | – | inhibition [10]: 74.4% |
| Nc1c2c(nc3ccccc13)CC/C(=C/c1cccs1)C2=O | – | 5.9 | 10.8 | – |

| Compound | inhibition [1] [%] | inhibition (Homo sapiens [2]) [%] | Papp at 10 h, 100 ug/ml [3] [×10⁻⁶ cm/s] | other results |
| --- | --- | --- | --- | --- |
| Nc1c2c(nc3ccccc13)CC/C(=C/c1cccc([N+](=O)[O-])c1)C2=O | – | – | 9.1 | – |
| C[n+]1c2c(c(N)c3ccccc31)C(=O)/C(=C/c1cccc([N+](=O)[O-])c1)CC2.[I-] | 86.4 | 98.2 | 2.1 | – |
| C[n+]1c2c(c(N)c3ccccc31)C(=O)/C(=C\c1cccc(Cl)c1)CC2.[I-] | 105 | 15.4 | 4.6 | – |
| Nc1c2c(nc3ccccc13)CC/C(=C\c1cccc3ccccc13)C2=O | 7.8 | -6.7 | 0.5 | – |
| O=C1/C(=C/c2cccc(F)c2)CCc2nc3ccccc3cc21 | 7.2 | 14.7 | 17.2 | – |
| Nc1c2c(nc3ccccc13)CC/C(=C\c1cccc([N+](=O)[O-])c1)C2=O | 8.2 | – | 3.3 | – |
| O=C1/C(=C/c2ccccc2Cl)CCc2nc3ccccc3cc21 | 3.5 | 14.9 | 7.1 | – |
| Nc1c2c(nc3ccccc13)CC/C(=C\c1ccc(Cl)cc1)C2=O | 24.8 | 7.1 | 30.3 | – |
| C[n+]1c2c(c(N)c3ccccc31)C(=O)/C(=C\c1cccc(F)c1)CC2.[I-] | 89.1 | 23.3 | 2.7 | – |
| O=C1/C(=C/c2ccc([N+](=O)[O-])cc2)CCc2nc3ccccc3cc21 | 2.7 | 6.3 | 3.2 | – |
| C[n+]1c2c(c(N)c3ccccc31)C(=O)/C(=C/c1cccc(Cl)c1)CC2.[I-] | 91.9 | 98.3 | 4.1 | – |
| Nc1c2c(nc3ccccc13)CC/C(=C\c1cccc(F)c1)C2=O | 20.3 | 4.9 | 5.3 | – |
| COc1cccc(/C=C2\CCc3nc4ccccc4c(N)c3C2=O)c1 | 7.9 | 44.3 | 7.5 | – |
| CN(C)c1ccc2nc3ccc(N(C)C)cc3[s+]c2c1 [METHYLENE BLUE ANHYDROUS] | – | – | – | Kd [8]: 28.2 µM |
| Nc1c2c(nc3ccccc13)CC/C(=C\C=C\c1ccccc1)C2=O | 2 | -3.8 | 1.3 | – |
| Nc1c2c(nc3ccccc13)CCC(Cc1ccccc1)C2=O (stereo not given) | -4 | 10 | 13.9 | – |
| Nc1c2c(nc3ccccc13)CC/C(=C/c1cccc(Cl)c1)C2=O | – | – | 15.6 | – |
| Nc1c2c(nc3ccccc13)CC/C(=C/c1ccccc1)C2=O | – | – | 13.3 | – |
| Nc1c2c(nc3ccccc13)CC/C(=C\c1ccc([N+](=O)[O-])cc1)C2=O | 2.4 | -3.3 | 11.2 | – |
| Nc1c2c(nc3ccccc13)CC/C(=C\c1cccc(Cl)c1)C2=O | 34.2 | -3.1 | 1.1 | – |
| C[n+]1c2c(c(N)c3ccccc31)C(=O)/C(=C/c1cccs1)CC2.[I-] | 99.5 | 95.3 | 1.7 | – |
| Nc1c2c(nc3ccccc13)CC/C(=C/c1cccc3ccccc13)C2=O | -6.8 | – | 49.5 | – |
